Columns and labels:
Format in all cases: cell-based
[1] = system: mixed population of algae and blue-green bacteria; experiment: Model cooling tower biofilm efficacy (chlorophyll a); details: one-per-week slug doses, biofilm harvested after four weeks
Experimental: Oxyfluorfen was tested as a water treatment antialgal compound in model cooling towers which simulate pertinent process variables of industrial cooling towers. Compounds were dosed on a regular basis and the efficacy of the treatments was determined by measuring a parameter of algal or cyanobacterial biomass; specific operating parameters are described below.
The basic design consisted of an acrylic plastic tower placed within a 17-liter polycarbonate basin. Each model contained a temperature control system, acid (H₂SO₄) or base (KOH) feed for pH control, air flow regulators, water recirculation system, and a makeup water supply. Two sets of five towers were placed in vented enclosures.
The basin contained an overflow port positioned to provide a constant 8-liter working volume in the system. […]
Illumination was provided by cool white and grow-lux fluorescent lights operated on a 19 hours per day cycle. The heating system for each unit consisted of an immersion heating element, temperature controller, two thermistors, and a direct readout thermometer. […]
The model cooling towers were designed and operated to maintain a constant half-life in each unit. […] The rate of removal of a given compound from the system was thereby determined by the concentration of the material in the bulkwater and the rate of blowdown from the tower. […]

[2] = system: mixed cooling tower culture; experiment: Simulated cooling tower water jar test, visual growth rating; parameters: key to Visual Rating (7 Day Incubation): 0 = no growth; 1 = slight growth; 3 = moderate growth; 5 = abundant growth; details: for Visual Rating (7 Day Incubation): synthetic cooling tower water pH 8.5
Experimental: A study was conducted with simulated cooling tower water to determine the effect of oxyfluorfen as an antialgal compound under simulated cooling tower conditions. Synthetic cooling tower water was made up with the following final concentrations (pH 8.5): Approximately 500 ml of the above solution was added to half-gallon jars and each jar was charged with given levels of oxyfluorfen (supplied as an emulsifiable concentrate); one jar contained no antialgal compound (control). Another set of jars was prepared with known levels of Isothiazolone A, a known antialgal compound for comparison purposes. Each jar was inoculated with 5 ml of a mixed cooling tower culture which was obtained from surface scrapings of industrial cooling towers; the mixed populations were maintained at room temperature in modified Allen's Media Formulation B described below in Part B. Each jar was inoculated two times per week to challenge the system. Jars were incubated under a 12 hour illumination cycle at room temperature (25°C) and were mixed manually (by swirling) three times per day. Visual observations were recorded daily using the rating scale described in Part C.

Anabaena flos-aquae = experiment: MIC microtiter plate assay; details: Dolichospermum flos-aquae; growth/no-growth after 14 or 21 days, 25°C
Experimental: Efficacy studies were conducted on a variety of microorganisms with oxyfluorfen. Minimum Inhibitory Concentration (MIC) studies were conducted using microtiter plate assays. In this method, a wide range of concentrations was tested by preparing two-fold serial dilutions of the compound in 96-well plastic microtiter plates. All liquid media transfers were performed with calibrated single or multichannel digital pipetters. Stock solutions of compounds were prepared in appropriate solvents and dispensed to the growth medium. All subsequent dilutions in plates were made using the desired growth medium. The total volume of liquid in each well was 100 ul. The pure cultures used in this study were obtained from the Culture Collection of Algae at the University of Texas at Austin (UTEX). The mixed culture of algae was obtained from a cooling tower biofilm and maintained in liquid medium; microorganisms used as inocula were cultured in shaken liquid culture (50 ml of Bristol's medium, pH 7.0, 25°C); Journal of Phycology, 23s: 1-47, 1987) for one week or as needed to attain a desired cell mass. The cultures were then inoculated into the microtiter plates using a 96-prong multiple inoculator (5 µl inoculum); each well received a standard suspension of biomass (5% inoculum). Plates were incubated at 25°C under constant illumination (500 ft candles). The extent of growth was determined under low magnification with the aid of a microtiter plate reader. The growth in each cell was monitored periodically and growth/no-growth was recorded after 14 or 21 days. […] Following the evaluation procedure of Example 3, compounds according to the following structural formula, with X and Y substituents according to Table 4A, were evaluated with the results shown in Table 4B. [drawing 4]

## CCOc1cc(Oc2ccc(C(F)(F)F)cc2Cl)ccc1[N+](=O)[O-] [Oxyfluorfen, oxyfluorfen]
[1]; 0.05 ppm
  Chlorophyll a in Biofilm: 3.27 ug/cm2
[1]; 672 h, read-out: Chlorophyll a in Biofilm % of control
  activity at 0.05 ppm: 24%
[2]; 0.005 ppm
  Visual Rating (7 Day Incubation): 0
[2]; 0.010 ppm
  Visual Rating (7 Day Incubation): 0
[2]; 0.025 ppm
  Visual Rating (7 Day Incubation): 0
[2]; 0.050 ppm
  Visual Rating (7 Day Incubation): 0
[2]; 0.100 ppm
  Visual Rating (7 Day Incubation): 0
[2]; 0.250 ppm
  Visual Rating (7 Day Incubation): 0
[2]; 0.500 ppm
  Visual Rating (7 Day Incubation): 0
[2]; simulated water chemistry conditions
  levels effective for controlling cooling tower algae: ≤ 5 ppb
Anabaena flos-aquae
  MIC: > 500 µg/mL
